Laboratory results: the kinase profiling compilation of Christmann-Franck et al. (2016)

Columns and labels:
Experiment in all cases: radiometric filter-binding kinase assay, Kinase HotSpot
Conditions in all cases: compound 0.5 µM; ATP 10 µM
[1] = target: ABL2 (human) (UniProt P42684)
[2] = target: ACVR1 (human) (UniProt Q04771)
[3] = target: BRSK1 (human) (UniProt Q8TDC3)
[4] = target: CAMK2D (human) (UniProt Q13557)
[5] = target: CAMK2G (human) (UniProt Q13555)
[6] = target: CDK3 CCNE1 (human) (UniProt Q00526+P24864)
[7] = target: CDK6 CCND3 (human) (UniProt P30281+Q00534)
[8] = target: CSNK1G2 (human) (UniProt P78368)
[9] = target: DAPK2 (human) (UniProt Q9UIK4)
[10] = target: DCLK2 (human) (UniProt Q8N568)
[11] = target: EGFR (human) (UniProt P00533)
[12] = target: EPHA3 (human) (UniProt P29320)
[13] = target: EPHA5 (human) (UniProt P54756)
[14] = target: ERBB4 (human) (UniProt Q15303)
[15] = target: GSK3A (human) (UniProt P49840)
[16] = target: HIPK4 (human) (UniProt Q8NE63)
[17] = target: ITK (human) (UniProt Q08881)
[18] = target: KDR (human) (UniProt P35968)
[19] = target: MAP3K11 (human) (UniProt Q16584)
[20] = target: MAP4K4 (human) (UniProt O95819)
[21] = target: MAPK12 (human) (UniProt P53778)
[22] = target: MARK3 (human) (UniProt P27448)
[23] = target: MYLK2 (human) (UniProt Q9H1R3)
[24] = target: MYO3B (human) (UniProt Q8WXR4)
[25] = target: NEK1 (human) (UniProt Q96PY6)
[26] = target: NEK2 (human) (UniProt P51955)
[27] = target: NLK (human) (UniProt Q9UBE8)
[28] = target: PAK4 (human) (UniProt O96013)
[29] = target: PASK (human) (UniProt Q96RG2)
[30] = target: PBK (human) (UniProt Q96KB5)
[31] = target: PRKD2 (human) (UniProt Q9BZL6)
[32] = target: PRKG2 (human) (UniProt Q13237)
[33] = target: RPS6KA1 KD1 KD2 (human) (UniProt Q15418)
[34] = target: SGK2 (human) (UniProt Q9HBY8)
[35] = target: SRPK1 (human) (UniProt Q96SB4)
[36] = target: STK10 (human) (UniProt O94804)
[37] = target: STK38 (human) (UniProt Q15208)
[38] = target: TAOK1 (human) (UniProt Q7L7X3)
[39] = target: TAOK3 (human) (UniProt Q9H2K8)
[40] = target: TEC (human) (UniProt P42680)
[41] = target: TGFBR2 (human) (UniProt P37173)
[42] = target: TLK2 (human) (UniProt Q86UE8)

Sequence of STK10 (human) (O94804 whole entry, looked up): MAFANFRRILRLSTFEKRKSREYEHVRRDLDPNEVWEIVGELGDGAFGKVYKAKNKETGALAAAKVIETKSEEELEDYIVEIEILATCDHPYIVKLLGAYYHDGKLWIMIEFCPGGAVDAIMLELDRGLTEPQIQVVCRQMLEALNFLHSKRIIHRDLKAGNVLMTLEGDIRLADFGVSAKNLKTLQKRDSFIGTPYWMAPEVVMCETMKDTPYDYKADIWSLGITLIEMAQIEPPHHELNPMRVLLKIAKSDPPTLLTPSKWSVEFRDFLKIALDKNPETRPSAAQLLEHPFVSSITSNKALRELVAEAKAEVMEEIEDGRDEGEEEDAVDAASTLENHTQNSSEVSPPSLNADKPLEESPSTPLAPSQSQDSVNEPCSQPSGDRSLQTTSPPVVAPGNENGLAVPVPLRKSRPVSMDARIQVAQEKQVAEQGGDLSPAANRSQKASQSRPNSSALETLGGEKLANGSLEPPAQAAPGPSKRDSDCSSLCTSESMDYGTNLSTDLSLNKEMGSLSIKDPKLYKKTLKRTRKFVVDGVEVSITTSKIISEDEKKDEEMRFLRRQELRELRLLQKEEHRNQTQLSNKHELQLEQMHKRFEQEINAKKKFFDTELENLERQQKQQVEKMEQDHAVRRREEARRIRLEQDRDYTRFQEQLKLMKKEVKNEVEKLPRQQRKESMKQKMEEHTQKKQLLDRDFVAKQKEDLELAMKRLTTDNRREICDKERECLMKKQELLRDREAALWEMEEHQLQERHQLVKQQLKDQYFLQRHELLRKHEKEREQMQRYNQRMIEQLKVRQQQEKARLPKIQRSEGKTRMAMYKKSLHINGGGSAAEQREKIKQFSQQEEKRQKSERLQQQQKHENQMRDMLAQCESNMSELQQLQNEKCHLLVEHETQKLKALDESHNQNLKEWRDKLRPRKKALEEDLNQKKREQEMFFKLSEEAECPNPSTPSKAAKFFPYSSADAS
Sequence of SRPK1 (human) (Q96SB4 whole entry, looked up): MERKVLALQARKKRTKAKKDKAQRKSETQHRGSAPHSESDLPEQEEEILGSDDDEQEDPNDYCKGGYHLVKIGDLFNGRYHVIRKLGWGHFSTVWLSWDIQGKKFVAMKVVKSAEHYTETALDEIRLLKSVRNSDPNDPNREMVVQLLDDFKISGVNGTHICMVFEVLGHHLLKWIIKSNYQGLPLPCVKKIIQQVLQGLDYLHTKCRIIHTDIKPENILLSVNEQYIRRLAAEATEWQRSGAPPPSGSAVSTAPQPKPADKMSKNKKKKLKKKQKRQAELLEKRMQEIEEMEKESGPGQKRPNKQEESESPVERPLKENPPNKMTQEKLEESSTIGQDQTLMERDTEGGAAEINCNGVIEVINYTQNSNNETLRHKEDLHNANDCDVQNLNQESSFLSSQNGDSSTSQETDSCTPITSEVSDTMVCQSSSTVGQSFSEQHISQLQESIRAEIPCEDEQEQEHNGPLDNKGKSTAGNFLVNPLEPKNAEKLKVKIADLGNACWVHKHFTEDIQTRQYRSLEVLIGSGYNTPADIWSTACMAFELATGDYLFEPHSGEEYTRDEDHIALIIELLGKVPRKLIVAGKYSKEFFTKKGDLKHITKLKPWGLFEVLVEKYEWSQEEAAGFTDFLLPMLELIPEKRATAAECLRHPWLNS
Sequence of MYO3B (human) (Q8WXR4 whole entry, looked up): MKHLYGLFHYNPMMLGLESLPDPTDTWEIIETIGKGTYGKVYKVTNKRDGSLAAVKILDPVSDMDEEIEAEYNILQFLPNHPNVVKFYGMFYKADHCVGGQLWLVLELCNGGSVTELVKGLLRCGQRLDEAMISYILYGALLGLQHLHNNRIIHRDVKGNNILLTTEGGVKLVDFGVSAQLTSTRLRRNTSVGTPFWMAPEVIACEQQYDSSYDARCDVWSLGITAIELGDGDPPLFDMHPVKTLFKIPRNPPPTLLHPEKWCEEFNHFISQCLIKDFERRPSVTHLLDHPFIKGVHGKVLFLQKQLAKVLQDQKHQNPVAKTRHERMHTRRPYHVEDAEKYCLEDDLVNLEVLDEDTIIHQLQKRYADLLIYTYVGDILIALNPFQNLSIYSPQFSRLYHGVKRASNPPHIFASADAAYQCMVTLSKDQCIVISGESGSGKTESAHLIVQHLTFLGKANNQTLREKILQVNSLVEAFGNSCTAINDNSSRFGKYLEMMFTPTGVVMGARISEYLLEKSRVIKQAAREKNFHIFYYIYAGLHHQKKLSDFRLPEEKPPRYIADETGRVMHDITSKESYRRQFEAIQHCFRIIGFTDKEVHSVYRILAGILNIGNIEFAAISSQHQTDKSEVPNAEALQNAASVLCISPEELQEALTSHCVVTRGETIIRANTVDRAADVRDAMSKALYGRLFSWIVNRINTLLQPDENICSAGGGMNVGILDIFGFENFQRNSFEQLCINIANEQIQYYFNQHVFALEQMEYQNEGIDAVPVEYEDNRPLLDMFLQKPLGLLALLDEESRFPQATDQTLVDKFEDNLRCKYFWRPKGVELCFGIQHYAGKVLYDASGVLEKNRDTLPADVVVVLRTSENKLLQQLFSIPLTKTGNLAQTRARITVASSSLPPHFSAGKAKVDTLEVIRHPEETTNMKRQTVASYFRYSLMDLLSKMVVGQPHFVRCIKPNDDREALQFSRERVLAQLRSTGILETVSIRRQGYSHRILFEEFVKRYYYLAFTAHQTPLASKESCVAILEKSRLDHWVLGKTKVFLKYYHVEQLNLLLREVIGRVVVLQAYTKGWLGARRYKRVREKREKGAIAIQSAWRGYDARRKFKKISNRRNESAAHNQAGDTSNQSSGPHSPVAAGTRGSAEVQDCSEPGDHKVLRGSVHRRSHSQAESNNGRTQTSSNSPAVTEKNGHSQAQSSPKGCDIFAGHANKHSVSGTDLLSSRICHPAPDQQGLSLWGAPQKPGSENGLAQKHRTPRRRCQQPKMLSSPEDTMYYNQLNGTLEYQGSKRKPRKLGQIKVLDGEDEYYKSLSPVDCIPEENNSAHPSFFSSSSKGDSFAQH
Sequence of MAPK12 (human) (P53778 whole entry, looked up): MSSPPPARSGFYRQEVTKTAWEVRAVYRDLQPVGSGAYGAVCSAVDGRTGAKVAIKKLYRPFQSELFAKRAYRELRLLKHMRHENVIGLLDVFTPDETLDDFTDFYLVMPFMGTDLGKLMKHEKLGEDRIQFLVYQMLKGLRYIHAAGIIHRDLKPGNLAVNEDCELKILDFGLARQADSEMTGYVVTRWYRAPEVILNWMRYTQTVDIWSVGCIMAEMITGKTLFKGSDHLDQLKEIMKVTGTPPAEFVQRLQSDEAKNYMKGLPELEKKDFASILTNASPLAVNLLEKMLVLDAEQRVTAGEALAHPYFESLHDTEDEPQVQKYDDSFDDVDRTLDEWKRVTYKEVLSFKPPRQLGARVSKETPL
Sequence of MYLK2 (human) (Q9H1R3 whole entry, looked up): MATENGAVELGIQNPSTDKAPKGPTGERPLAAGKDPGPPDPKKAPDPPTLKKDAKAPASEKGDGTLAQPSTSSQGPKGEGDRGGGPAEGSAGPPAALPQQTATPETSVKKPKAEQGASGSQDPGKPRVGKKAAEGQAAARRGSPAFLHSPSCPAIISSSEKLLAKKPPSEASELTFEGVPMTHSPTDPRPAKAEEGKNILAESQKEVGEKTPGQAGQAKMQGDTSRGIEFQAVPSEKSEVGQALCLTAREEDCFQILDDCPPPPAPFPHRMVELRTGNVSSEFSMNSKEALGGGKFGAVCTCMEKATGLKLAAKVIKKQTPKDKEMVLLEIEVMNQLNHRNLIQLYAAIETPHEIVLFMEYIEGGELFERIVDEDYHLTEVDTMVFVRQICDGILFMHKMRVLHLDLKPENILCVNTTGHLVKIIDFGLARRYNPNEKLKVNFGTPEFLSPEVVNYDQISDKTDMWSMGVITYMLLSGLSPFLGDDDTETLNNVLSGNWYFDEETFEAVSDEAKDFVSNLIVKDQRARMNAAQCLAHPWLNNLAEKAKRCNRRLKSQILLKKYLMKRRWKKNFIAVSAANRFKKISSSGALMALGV
Sequence of PRKD2 (human) (Q9BZL6 whole entry, looked up): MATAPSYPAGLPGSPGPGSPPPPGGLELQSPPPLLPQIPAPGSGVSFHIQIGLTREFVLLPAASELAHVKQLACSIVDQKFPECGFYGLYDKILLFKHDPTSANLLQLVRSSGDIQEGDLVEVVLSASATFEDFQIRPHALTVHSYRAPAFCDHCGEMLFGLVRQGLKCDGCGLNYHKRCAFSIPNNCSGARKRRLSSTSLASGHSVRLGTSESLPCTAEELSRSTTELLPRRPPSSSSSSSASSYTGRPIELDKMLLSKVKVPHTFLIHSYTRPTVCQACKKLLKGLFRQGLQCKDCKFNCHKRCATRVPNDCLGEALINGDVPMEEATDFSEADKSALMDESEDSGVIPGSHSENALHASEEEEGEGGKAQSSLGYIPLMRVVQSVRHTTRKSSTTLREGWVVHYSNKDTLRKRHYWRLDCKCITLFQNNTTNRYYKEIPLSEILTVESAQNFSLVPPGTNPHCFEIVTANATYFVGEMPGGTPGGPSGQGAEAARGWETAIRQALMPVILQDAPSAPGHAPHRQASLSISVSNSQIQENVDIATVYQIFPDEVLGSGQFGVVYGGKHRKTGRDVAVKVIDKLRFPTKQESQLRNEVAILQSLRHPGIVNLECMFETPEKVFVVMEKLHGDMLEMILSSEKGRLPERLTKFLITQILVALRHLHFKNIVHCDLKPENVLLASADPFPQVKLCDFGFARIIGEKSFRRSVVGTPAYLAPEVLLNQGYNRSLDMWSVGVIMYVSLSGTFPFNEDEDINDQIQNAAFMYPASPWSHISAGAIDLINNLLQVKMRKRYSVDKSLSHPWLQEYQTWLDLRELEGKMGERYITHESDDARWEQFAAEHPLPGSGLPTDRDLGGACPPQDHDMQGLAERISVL

CN(C)S(=O)(=O)c1ccc2c(c1)/C(=C/c1cc3c([nH]1)CCCC3)C(=O)N2
residual activity [1]: 56.8% | residual activity [2]: 98.6% | residual activity [3]: 32.4% | residual activity [4]: 73.2% | residual activity [5]: 98.9% | residual activity [6]: 96.9% | residual activity [7]: 84.2% | residual activity [8]: 93.8% | residual activity [9]: 93.5% | residual activity [10]: 72% | residual activity [11]: 93.4% | residual activity [12]: 98.6% | residual activity [13]: 85.1% | residual activity [14]: 106% | residual activity [15]: 99.4% | residual activity [16]: 98.8% | residual activity [17]: 61.2% | residual activity [18]: 96.9% | residual activity [19]: 57.4% | residual activity [20]: 46.1% | residual activity [21]: 103% | residual activity [22]: 68.9% | residual activity [23]: 97.9% | residual activity [24]: 98.9% | residual activity [25]: 93.1% | residual activity [26]: 98% | residual activity [27]: 99.7% | residual activity [28]: 97.6% | residual activity [29]: 95.6% | residual activity [30]: 99.7% | residual activity [31]: 102% | residual activity [32]: 95.9% | residual activity [33]: 68.1% | residual activity [34]: 101% | residual activity [35]: 63.8% | residual activity [36]: 9.53% | residual activity [37]: 94.6% | residual activity [38]: 85.8% | residual activity [39]: 55.4% | residual activity [40]: 116% | residual activity [41]: 129% | residual activity [42]: 102%

Cc1nc(-c2ccccc2)c(-c2ccncc2)o1
residual activity [1]: 92.8% | residual activity [2]: 104% | residual activity [3]: 99.8% | residual activity [4]: 94.2% | residual activity [5]: 91.7% | residual activity [6]: 98.1% | residual activity [7]: 109% | residual activity [8]: 92.2% | residual activity [9]: 106% | residual activity [10]: 97% | residual activity [11]: 89.4% | residual activity [12]: 109% | residual activity [13]: 91.4% | residual activity [14]: 92.2% | residual activity [15]: 112% | residual activity [16]: 102% | residual activity [17]: 97.1% | residual activity [18]: 85.2% | residual activity [19]: 98.7% | residual activity [20]: 85.1% | residual activity [21]: 105% | residual activity [22]: 107% | residual activity [23]: 100% | residual activity [24]: 108% | residual activity [25]: 103% | residual activity [26]: 116% | residual activity [27]: 79.4% | residual activity [28]: 101% | residual activity [29]: 98.1% | residual activity [30]: 110% | residual activity [31]: 97.7% | residual activity [32]: 85% | residual activity [33]: 103% | residual activity [34]: 105% | residual activity [35]: 101% | residual activity [36]: 96.9% | residual activity [37]: 97.3% | residual activity [38]: 98.5% | residual activity [39]: 99% | residual activity [40]: 127% | residual activity [41]: 133% | residual activity [42]: 110%

Fc1ccc(-c2nc3n(c2-c2ccncc2)CCS3)cc1
residual activity [1]: 91% | residual activity [2]: 94.2% | residual activity [3]: 93.9% | residual activity [4]: 97.1% | residual activity [5]: 90.5% | residual activity [6]: 97% | residual activity [7]: 108% | residual activity [8]: 76.4% | residual activity [9]: 113% | residual activity [10]: 97.4% | residual activity [11]: 90.7% | residual activity [12]: 112% | residual activity [13]: 89.7% | residual activity [14]: 83% | residual activity [15]: 116% | residual activity [16]: 89.7% | residual activity [17]: 97.5% | residual activity [18]: 95.7% | residual activity [19]: 95.7% | residual activity [20]: 72.3% | residual activity [21]: 104% | residual activity [22]: 88.9% | residual activity [23]: 101% | residual activity [24]: 102% | residual activity [25]: 103% | residual activity [26]: 115% | residual activity [27]: 41.1% | residual activity [28]: 99.1% | residual activity [29]: 109% | residual activity [30]: 100% | residual activity [31]: 94.7% | residual activity [32]: 93.9% | residual activity [33]: 100% | residual activity [34]: 105% | residual activity [35]: 100% | residual activity [36]: 94.9% | residual activity [37]: 88% | residual activity [38]: 97.7% | residual activity [39]: 98.9% | residual activity [40]: 130% | residual activity [41]: 137% | residual activity [42]: 94.7%
